Source: the NIST ThermoML archive (doi:10.1016/j.tca.2013.03.008)
Values joined by “and” are separate entries in the source; they are usually repeats but may differ in a detail not shown here. Equal values may be shown once. Numbers after ± are expanded uncertainties.

How the values were obtained:
[1] = xn = mol fraction of the nth substance listed; conditions: 101 kPa, Liquid; for viscosity: Capillary tube (Ostwald / Ubbelohde) method; for mass density: Vibrating tube method
[2] = 101 kPa, Liquid; for viscosity: Capillary tube (Ostwald / Ubbelohde) method; for mass density: Vibrating tube method

CCC(C)O (stereo unspecified) [butan-2-ol] + CCC(=O)CC
viscosity ([1]; 298.15 K, x2 = 0): 2.998 ± 0.031 mPa·s
mass density ([1]; 298.15 K, x2 = 0): 802.62 ± 0.31 kg/m3
viscosity ([1]; 308.15 K, x2 = 0): 2.17 ± 0.025 mPa·s
mass density ([1]; 308.15 K, x2 = 0): 794.13 ± 0.31 kg/m3
viscosity ([1]; 318.15 K, x2 = 0): 1.476 ± 0.019 mPa·s
mass density ([1]; 318.15 K, x2 = 0): 785.22 ± 0.31 kg/m3

CCC(=O)CC [pentan-3-one] + CCOC(=O)CCl
viscosity ([1]; 298.15 K, x1 = 1): 0.442 ± 0.005 mPa·s
mass density ([1]; 298.15 K, x1 = 1): 809.38 ± 0.31 kg/m3
viscosity ([1]; 308.15 K, x1 = 1): 0.398 ± 0.004 mPa·s
mass density ([1]; 308.15 K, x1 = 1): 799.55 ± 0.31 kg/m3
viscosity ([1]; 318.15 K, x1 = 1): 0.362 ± 0.004 mPa·s
mass density ([1]; 318.15 K, x1 = 1): 789.63 ± 0.31 kg/m3

CCOC(=O)CCl [ethyl chloroethanoate]
viscosity ([2]; 298.15 K): 1.095 ± 0.011 mPa·s
mass density ([2]; 298.15 K): 1144.11 ± 0.45 kg/m3
viscosity ([2]; 308.15 K): 0.934 ± 0.009 mPa·s and 0.939 ± 0.009 mPa·s
mass density ([2]; 308.15 K): 1131.46 ± 0.44 kg/m3
viscosity ([2]; 318.15 K): 0.816 ± 0.008 mPa·s and 0.815 ± 0.008 mPa·s
mass density ([2]; 318.15 K): 1118.74 ± 0.42 kg/m3

CCC(=O)CC [pentan-3-one]
viscosity ([2]; 298.15 K): 0.442 ± 0.005 mPa·s
mass density ([2]; 298.15 K): 809.38 ± 0.31 kg/m3
viscosity ([2]; 308.15 K): 0.398 ± 0.004 mPa·s
mass density ([2]; 308.15 K): 799.55 ± 0.31 kg/m3
viscosity ([2]; 318.15 K): 0.362 ± 0.004 mPa·s
mass density ([2]; 318.15 K): 789.63 ± 0.31 kg/m3

CCC(C)O (stereo unspecified) [butan-2-ol]
viscosity ([2]; 298.15 K): 2.998 ± 0.031 mPa·s
mass density ([2]; 298.15 K): 802.62 ± 0.31 kg/m3
viscosity ([2]; 308.15 K): 2.17 ± 0.025 mPa·s
mass density ([2]; 308.15 K): 794.13 ± 0.31 kg/m3
viscosity ([2]; 318.15 K): 1.476 ± 0.019 mPa·s
mass density ([2]; 318.15 K): 785.22 ± 0.31 kg/m3

CCC(C)O (stereo unspecified) [butan-2-ol] + CCOC(=O)CCl
viscosity ([1]; 298.15 K, x1 = 1): 2.998 ± 0.031 mPa·s
mass density ([1]; 298.15 K, x1 = 1): 802.62 ± 0.31 kg/m3
viscosity ([1]; 308.15 K, x1 = 1): 2.17 ± 0.025 mPa·s
mass density ([1]; 308.15 K, x1 = 1): 794.13 ± 0.31 kg/m3
viscosity ([1]; 318.15 K, x1 = 1): 1.476 ± 0.019 mPa·s
mass density ([1]; 318.15 K, x1 = 1): 785.22 ± 0.31 kg/m3
